Experimental findings from PMC8831520, “Small molecule SWELL1 complex induction improves glycemic control and nonalcoholic fatty liver disease in murine Type 2 diabetes” (Nature Communications, 2022) are described below.

Molecules are shown by their SMILES.

This experiment concerns T1, SWELL1 protein.
T1 construct: from tissue; host or cells: soleus muscle of HFD-T2D mice; liver of T2D KKA^y mice
The experiment is described as follows: SWELL1 protein in skeletal muscle and liver of treated T2D mice. Format: in vivo, mouse. The protocol: Adipocytes were washed twice in ice-cold phosphate buffer saline and lysed in RIPA buffer (150 mM NaCl, 20 mM HEPES, 1% NP-40, 5 mM EDTA, pH 7.4) with proteinase/phosphatase inhibitors (Roche). The cell lysate was further sonicated in 10 s cycle intervals 2–3 times and centrifuged at 18,407×g for 30 min at 4 °C and repeated one more time to remove the excess fat. The supernatant was collected and further estimated for protein concentration using a DC protein assay kit (Bio-Rad). Fat and liver tissues were homogenized and suspended in RIPA buffer with inhibitors and further processed in a similar fashion as described above. HUVECs were also prepared in a similar fashion except the lysates were spun only once to remove the cells debris to obtain the clear supernatant. For islets, either human or mouse islets were washed twice with phosphate buffer saline (PBS) and lysed using RIPA buffer containing protease and phosphatase inhibitors. The lysate was further clarified by freezing in liquid nitrogen for about 10 s for three cycles. The supernatant was collected from the whole lysate centrifuged at 16,260×g for 20 min at 4 °C. […] The images were further analyzed for band intensities using ImageJ software. […]

As to `CCCCC1(C2CCCC2)Cc2cc(OCCCC(=O)O)c(Cl)c(Cl)c2C1=O` (centres unmarked) [SN-401, 4-((2-butyl-6,7-dichloro-2-cyclopentyl-1-oxo-2,3-dihydro-1H-inden-5-yl)oxy)butanoic acid], the “SWELL1 induction in skeletal muscle” value (HFD-T2D mice (18 weeks HFD), 5 mg/kg i.p. 4 days) is “trend toward SN-401 mediated SWELL1 induction”. For the same compound, where the note is “T2D KKAy mice, 5 mg/kg i.p. 5 days”, the “hepatic SWELL1 protein” value is “does not induce”.
